Source: the supplement of paper PMC10307832

Tests used:
Assay in all cases: relative viability (nuclei count vs DMSO), 5 days (fraction); higher = more cells survive
Details in all cases: main component drawn
Bleomycin + Trametinib = compound: CC1=C(N=C(N=C1N)[C@H](CC(=O)N)NC[C@@H](C(=O)N)N)C(=O)N[C@@H]([C@H](C2=CN=CN2)OC3C(C(C(C(O3)CO)O)O)OC4C(C(C(C(O4)CO)O)OC(=O)N)O)C(=O)N[C@H](C)[C@H]([C@H](C)C(=O)N[C@@H]([C@@H](C)O)C(=O)NCCC5=NC(=CS5)C6=NC(=CS6)C(=O)NCCC[S+](C)C)O [Bleomycin] + CC(=O)Nc1cccc(-n2c(=O)n(C3CC3)c(=O)c3c(Nc4ccc(I)cc4F)n(C)c(=O)c(C)c32)c1 [Trametinib] (partner 0.02 µM)
Summary of the method: (§1)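 Values are medians from duplicate plates. Each reflects relative viability, defined as the nuclei count of treated wells over that of vehicle wells. Lung cancer cell lines in 1536-well plates were pin-tool dosed one day after seeding with one drug alone or with a fixed anchor-drug dose plus five library-drug doses (not always all listed) in √10 steps, then fixed, stained and imaged at 4× after 5 days.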

Bleomycin + Palbociclib = compound: CC1=C(N=C(N=C1N)[C@H](CC(=O)N)NC[C@@H](C(=O)N)N)C(=O)N[C@@H]([C@H](C2=CN=CN2)OC3C(C(C(C(O3)CO)O)O)OC4C(C(C(C(O4)CO)O)OC(=O)N)O)C(=O)N[C@H](C)[C@H]([C@H](C)C(=O)N[C@@H]([C@@H](C)O)C(=O)NCCC5=NC(=CS5)C6=NC(=CS6)C(=O)NCCC[S+](C)C)O [Bleomycin] + CC(=O)c1c(C)c2cnc(Nc3ccc(N4CCNCC4)cn3)nc2n(C2CCCC2)c1=O [Palbociclib] (partner 0.5 µM)
Summary of the method: as §1

Bleomycin + Linsitinib = compound: CC1=C(N=C(N=C1N)[C@H](CC(=O)N)NC[C@@H](C(=O)N)N)C(=O)N[C@@H]([C@H](C2=CN=CN2)OC3C(C(C(C(O3)CO)O)O)OC4C(C(C(C(O4)CO)O)OC(=O)N)O)C(=O)N[C@H](C)[C@H]([C@H](C)C(=O)N[C@@H]([C@@H](C)O)C(=O)NCCC5=NC(=CS5)C6=NC(=CS6)C(=O)NCCC[S+](C)C)O [Bleomycin] + C[C@]1(O)C[C@@H](c2nc(-c3ccc4ccc(-c5ccccc5)nc4c3)c3c(N)nccn32)C1 [Linsitinib] (partner 1 µM)
Summary of the method: as §1

Bleomycin + Navitoclax = compound: CC1=C(N=C(N=C1N)[C@H](CC(=O)N)NC[C@@H](C(=O)N)N)C(=O)N[C@@H]([C@H](C2=CN=CN2)OC3C(C(C(C(O3)CO)O)O)OC4C(C(C(C(O4)CO)O)OC(=O)N)O)C(=O)N[C@H](C)[C@H]([C@H](C)C(=O)N[C@@H]([C@@H](C)O)C(=O)NCCC5=NC(=CS5)C6=NC(=CS6)C(=O)NCCC[S+](C)C)O [Bleomycin] + CC1(C)CCC(c2ccc(Cl)cc2)=C(CN2CCN(c3ccc(C(=O)NS(=O)(=O)c4ccc(N[C@H](CCN5CCOCC5)CSc5ccccc5)c(S(=O)(=O)C(F)(F)F)c4)cc3)CC2)C1 [Navitoclax] (partner 0.5 µM)
Summary of the method: as §1

Row | Cell Line | relative viability (Bleomycin + Trametinib; first compound 0.01 µM) | relative viability (Bleomycin + Trametinib; first compound 0.03162 µM) | relative viability (Bleomycin + Trametinib; first compound 0.1 µM) | relative viability (Bleomycin + Trametinib; first compound 0.3162 µM) | relative viability (Bleomycin + Trametinib; first compound 1 µM) | relative viability (Bleomycin + Palbociclib; first compound 0.01 µM) | relative viability (Bleomycin + Palbociclib; first compound 0.03162 µM) | relative viability (Bleomycin + Palbociclib; first compound 0.1 µM) | relative viability (Bleomycin + Palbociclib; first compound 0.3162 µM) | relative viability (Bleomycin + Palbociclib; first compound 1 µM) | relative viability (Bleomycin + Linsitinib; first compound 0.01 µM) | relative viability (Bleomycin + Linsitinib; first compound 0.03162 µM) | relative viability (Bleomycin + Linsitinib; first compound 0.1 µM) | relative viability (Bleomycin + Linsitinib; first compound 0.3162 µM) | relative viability (Bleomycin + Linsitinib; first compound 1 µM) | relative viability (Bleomycin + Navitoclax; first compound 0.01 µM) | relative viability (Bleomycin + Navitoclax; first compound 0.03162 µM) | relative viability (Bleomycin + Navitoclax; first compound 0.1 µM) | relative viability (Bleomycin + Navitoclax; first compound 0.3162 µM) | relative viability (Bleomycin + Navitoclax; first compound 1 µM)
1 | NCI-H647 | 0.35 | 0.217 | 0.158 | 0.114 | 0.111 | 0.189 | 0.207 | 0.138 | 0.119 | 0.0651 | 0.649 | 0.487 | 0.321 | 0.13 | 0.102 | 0.408 | 0.263 | 0.203 | 0.0968 | 0.0761
2 | A-427 | 0.607 | 0.558 | 0.417 | 0.261 | 0.212 | 0.458 | 0.453 | 0.447 | 0.276 | 0.256 | 0.999 | 1.08 | 1.05 | 0.893 | 0.266 | 0.844 | 0.888 | 0.991 | 0.787 | 0.27
3 | EMC-BAC-2 |  | 0.6 | 0.535 | 0.306 | 0.29 | 0.378 | 0.433 | 0.414 | 0.333 | 0.293 | 0.746 | 0.696 | 0.688 | 0.38 | 0.265 | 1.04 | 1.18 | 0.979 | 0.661 | 0.399
4 | NCI-H460 | 0.107 | 0.0848 | 0.0692 | 0.0357 | 0.0155 | 0.0989 | 0.126 | 0.0546 | 0.0357 | 0.0284 | 0.448 | 0.356 | 0.158 | 0.0344 | 0.0252 | 0.343 | 0.465 | 0.0823 | 0.0158 | 0.0206
5 | LCLC-103H | 0.628 | 0.678 | 0.62 | 0.691 | 0.507 | 0.501 | 0.525 | 0.547 | 0.373 | 0.43 | 1.03 | 1.06 | 1.06 | 1.13 | 0.564 |  |  |  |  | 
6 | HCC-827 | 0.495 |  | 0.502 | 0.273 | 0.209 | 0.46 |  | 0.611 | 0.243 | 0.18 | 0.943 | 1.02 | 0.88 | 0.666 | 0.308 | 0.986 | 1.06 | 0.991 | 0.723 | 0.362
7 | NCI-H1355 | 0.415 | 0.385 | 0.482 | 0.317 | 0.198 | 0.402 | 0.382 | 0.396 | 0.253 | 0.221 | 0.794 | 0.838 | 0.783 | 0.463 | 0.287 | 1.01 | 0.947 | 0.913 | 0.565 | 0.328
8 | NCI-H1734 | 0.518 | 0.537 | 0.397 | 0.263 | 0.163 | 0.29 | 0.245 | 0.27 | 0.207 | 0.172 | 0.73 | 0.669 | 0.553 | 0.311 | 0.227 | 0.719 | 0.571 | 0.518 | 0.24 | 0.139
9 | HARA | 0.899 | 0.325 | 0.448 | 0.347 | 0.328 | 0.219 | 0.291 | 0.252 | 0.188 | 0.197 | 0.944 | 1.02 | 0.887 | 0.457 | 0.467 | 1.1 | 1.08 | 1.02 | 0.747 | 0.601
10 | HCC-15 | 0.348 | 0.338 | 0.365 | 0.209 | 0.186 | 0.711 | 0.686 | 0.648 | 0.343 | 0.285 | 0.793 | 0.804 | 0.763 | 0.418 | 0.288 | 0.656 | 0.68 | 0.713 | 0.378 | 0.324
11 | LCLC-97TM1 | 0.169 | 0.195 | 0.16 | 0.169 | 0.106 | 0.154 | 0.211 | 0.157 | 0.112 | 0.101 | 0.138 | 0.165 | 0.141 | 0.109 | 0.0963 | 0.191 | 0.197 | 0.102 | 0.152 | 0.1
12 | SK-LU-1 | 0.415 | 0.487 | 0.464 | 0.43 | 0.392 | 0.356 | 0.461 | 0.35 | 0.312 | 0.332 | 0.821 | 0.921 | 0.929 | 0.471 | 0.39 | 0.807 | 1.06 | 0.662 | 0.205 | 0.264
13 | NCI-H1651 | 0.818 | 0.712 | 0.714 | 0.368 | 0.223 | 0.488 | 0.454 | 0.464 | 0.288 | 0.252 | 0.862 | 0.766 | 0.596 | 0.27 | 0.152 | 0.944 | 0.82 | 0.614 | 0.272 | 0.136
14 | NCI-H2170 | 0.89 | 0.89 | 0.808 | 0.559 | 0.468 | 0.328 | 0.342 | 0.307 | 0.274 | 0.259 |  |  |  |  |  | 0.503 | 0.555 | 0.578 | 0.414 | 0.377
